Experimental data published in paper PMC8745263 (International Journal of Molecular Sciences, 2021).

Biological target: T1, APEH partially purified from human blood cells (Homo sapiens, UniProt P13798)
T1 construct: incubated with APEH partially purified from human blood cells; from tissue; host or cells: human red blood cells (erythrocyte hemolysate from donors' blood)
T1 sequence (P13798 1-732): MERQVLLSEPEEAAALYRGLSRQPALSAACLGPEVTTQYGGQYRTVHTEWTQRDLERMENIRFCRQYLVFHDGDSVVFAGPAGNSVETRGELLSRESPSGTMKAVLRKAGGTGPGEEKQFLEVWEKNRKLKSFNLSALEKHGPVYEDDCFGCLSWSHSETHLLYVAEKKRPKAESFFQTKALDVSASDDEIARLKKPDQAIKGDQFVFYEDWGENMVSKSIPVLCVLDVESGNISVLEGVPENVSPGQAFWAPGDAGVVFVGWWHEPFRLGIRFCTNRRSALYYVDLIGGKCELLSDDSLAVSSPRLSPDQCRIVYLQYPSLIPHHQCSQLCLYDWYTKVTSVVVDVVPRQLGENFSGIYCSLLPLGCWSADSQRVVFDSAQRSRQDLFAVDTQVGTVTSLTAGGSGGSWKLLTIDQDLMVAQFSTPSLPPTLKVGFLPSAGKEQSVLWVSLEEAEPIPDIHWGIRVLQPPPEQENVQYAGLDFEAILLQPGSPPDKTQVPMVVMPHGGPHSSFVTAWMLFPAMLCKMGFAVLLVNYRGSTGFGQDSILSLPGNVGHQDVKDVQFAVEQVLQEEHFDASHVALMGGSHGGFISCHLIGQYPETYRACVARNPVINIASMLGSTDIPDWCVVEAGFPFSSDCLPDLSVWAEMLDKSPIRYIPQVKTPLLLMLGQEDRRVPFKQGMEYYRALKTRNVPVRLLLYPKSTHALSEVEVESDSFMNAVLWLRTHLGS
Assay: Treatment of peptides with APEH and assessment of proteolysis by LC-MS
Format: biochemical
Conditions: APEH 0.7 μg, 37 °C, 48 h; for % Degradation (overall % of peptide degraded upon exposure to APEH): sum of fragment % of Table 2(a), Tris-HCl 25 mM pH 7.5, N.D. = not degraded
Protocol: In order to identify the potential cleavage sites of APEH on the oxidized GDF11[48-64], the peptide was incubated alone or in combination with the enzyme and the corresponding reaction mixtures were analyzed by LC-MS. The same experiments were performed using the non-oxidized analogues as control.
Blood samples were taken from donors using syringes with heparin. In accordance with ethical principles stated in the Declaration of Helsinki, as well as with approved national and international guidelines for human research, a written informed consent was obtained from participants. The erythrocytes were separated from the plasma by centrifugation at 1800× g for 5 min at 4 °C and washed twice with an isotonic solution (10 mM Tris-HCl pH 7.6, […]; 4 °C). Lysis of erythrocytes was carried out by incubation in hypotonic solution (25 mM Tris/HCl, pH 7.5) for 30 min on ice. The hemolysate was obtained by centrifugation of the lysate at 9200× g for 40 min at 4 °C. Then, the ‘soluble fraction’ was loaded onto a DEAE Sepharose Fast Flow column, connected to an AKTA FPLC system (Amersham Biosciences, Amersham, UK), previously equilibrated in 25 mM Tris-HCl (pH 7.5) (buffer A). The bound proteins were eluted using a linear ionic strength gradient (0–100%) of 1 M NaCl in buffer A at a flow rate of 1 mL min^−1. The active fractions were collected, pooled, dialyzed against 25 mM Tris-HCl pH 7.5 and loaded on a Superdex 200 PC 3.2/30 column (Pharmacia Biotech, Stockholm, Sweden) connected to a SMART System (Pharmacia Biotech, Stockholm, Sweden). The bound proteins were eluted with 25 mM Tris-HCl buffer, pH 7.5, containing 50 mM NaCl, at a flow rate of 0.1 mL min^−1. The active fractions were collected, pooled, dialyzed against 25 mM Tris-HCl pH 7.5 and stored in the same buffer supplemented with 5% glycerol. Enzyme purification was monitored using Ac-Met-7-amino-4-methylcoumarin (AMC) as substrate. Active fractions were analyzed by SDS-PAGE (12%) in order to evaluate the enrichment of the protein during the various purification steps. The protein was also characterized by Western Blot analysis. Aliquots of protein samples were subjected to SDS-PAGE (8%), and then electroblotted onto PVDF membranes (ImmobilonTM, Millipore, Milan, Italy). Membranes were next incubated with the specific primary antibody (sc-102311, 1:5000, Santa Cruz Biotechnology, USA) and then with the horseradish peroxidase-conjugated secondary antibody for 1 h at 37 °C (1:5000, Santa Cruz Biotechnology, Dallas, TX, USA). The immune complexes formed were visualized by enhanced chemiluminescence and autoradiography, according to the manufacturer’s protocol (Amersham Biosciences, Amersham, UK). Molecular mass of the native enzyme was established by gel filtration chromatography on a Superdex 200 PC 3.2/30 column (Pharmacia Biotech, Stockholm, Sweden), connected to a SMART system (Pharmacia Biotech, Stockholm, Sweden), and calibrated with BioRad gel filtration standards (BioRad, Milano, Italy; code 151-1901). The enzyme inhibition assay was performed on APEH preparation using the selective and potent inhibitor AA74-1 (SML0358, Sigma-Aldrich, Milano, Italy). Mixtures containing appropriate amount of inhibitor (62 µM) and APEH sample (0.7 μg) were pre-incubated for 30 min at 37 °C; then the substrate Ac-Met-7-amino-4-methylcoumarin (AMC) was added to the assay mixture and the enzymatic activity was followed as previously described. Control samples were prepared by pre-incubating the same amounts of APEH without the inhibitor and then assayed following the same procedure.
In total, 10 nmol/200 μL of each molecule was incubated with APEH partially purified from human blood cells (0.7 μg, 24.000 total units) at 37 °C for 48 h in Tris-HCl 25 mM pH 7.5. […]

[1] = 10 nmol/200 μL peptide, Tris-HCl 25 mM pH 7.5, EIC peak areas, average of three independent experiments
[2] = 10 nmol/200 μL peptide, Tris-HCl 25 mM pH 7.5, EIC peak areas, average of three independent experiments, listed as GDF11[48-64]ox
[3] = 10 nmol/200 μL peptide, Tris-HCl 25 mM pH 7.5, EIC peak areas, average of three independent experiments, listed as GDF11 wt

Substance | % fragment cleaved at L60 (Ac-...HTHL, lacking VQQA), percentage of the initial substrate [1] | % fragment cleaved on carboxy side of H59 (Ac-...HTH, lacking LVQQA), percentage of the initial substrate [1] | % fragment cleaved on carboxy side of Q62 (Ac-...HTHLVQ, lacking QA), percentage of the initial substrate [1] | % intact peptide left after APEH exposure (percentage of the initial substrate) [1] | % fragment cleaved at L60 (Ac-...HTHL, lacking VQQA), percentage of the initial substrate [2] | % fragment cleaved on carboxy side of H59 (Ac-...HTH, lacking LVQQA), percentage of the initial substrate [2] | % fragment cleaved on carboxy side of Q62 (Ac-...HTHLVQ, lacking QA), percentage of the initial substrate [2] | % fragment cleaved on carboxy side of H59 (Ac-...HTH, lacking LVQQA), percentage of the initial substrate [3] | % fragment cleaved on carboxy side of Q62 (Ac-...HTHLVQ, lacking QA), percentage of the initial substrate [3] | cleavage at H59 as % of the total processed peptide (Tris-HCl 25 mM pH 7.5) | cleavage at L60 as % of the total processed peptide (Tris-HCl 25 mM pH 7.5) | cleavage at Q62 as % of the total processed peptide (Tris-HCl 25 mM pH 7.5) | % Degradation (overall % of peptide degraded upon exposure to APEH) (10 nmol/200 μL peptide) | % Degradation (overall % of peptide degraded upon exposure to APEH) (10 nmol/200 μL peptide, listed as GDF11[48-64]ox) | susceptibility to APEH endoprotease cleavage (in words) (Tris-HCl 25 mM pH 7.5)
Ac-EYM(ox)FM(ox)QKYPHTHLVQQA-NH2 [GDF11[48-64] wt ox, GDF11[48-64]wt bearing sulphoxide groups on M50 and M52, by 3% H2O2 treatment] | 8.4% | 25.6% | 16.4% | 49.6% | about 8% | about 26% | about 16% | ~28% | 18% | around 50% | about 17% | around 32% | 50.4% | around 50% | –
Ac-EYMFMQKYPHTHLVQQA-NH2 [GDF11[48-64]wt, peptide reproducing the 48–64 region of GDF11 protein, acetylated and amidated] | – | – | – | – | – | – | – | – | – | – | – | – | – | – | No cleavage
